A short description of this data set: physchem. The text has this: The segments were synthesized at a cGMP facility using standard techniques for amino acid synthesis.

Structures are written as SMILES. Values after ≈ are worked out from the molar mass of the structure shown. Peptide text beside a SMILES is read from it.

One may read the solubility as how much of the substance goes into solution per volume. A lower solubility goes with little dissolved substance.

Regarding `CC[C@H](C)[C@H](NC(=O)[C@@H]1CCCN1C(=O)[C@H](C)NC(=O)CNC(=O)[C@@H]1CCCN1C(=O)[C@H](CCC(N)=O)NC(=O)[C@H](CO)NC(=O)[C@H](Cc1ccccc1)NC(=O)[C@H](Cc1ccccc1)NC(=O)[C@@H]1CCCN1C(=O)[C@H](CC(N)=O)NC(=O)[C@H](CCC(=O)O)NC(=O)[C@H](CCC(N)=O)NC(=O)[C@H](CC(C)C)NC(=O)[C@@H](NC(=O)[C@H](CS)NC(=O)[C@H](CCC(=O)O)NC(=O)[C@@H]1CCCN1C(=O)[C@H](CS)NC(=O)[C@H](CC(=O)O)NC(=O)[C@H](CCC(N)=O)NC(=O)[C@@H](NC(=O)[C@H](CC(=O)O)NC(=O)[C@@H]1CCCN1C(=O)[C@H](C)N)C(C)C)[C@@H](C)O)C(=O)O` [first amino acid segment] (H-APDVQDCPECTLQENPFFSQPGAPI-OH), the solubility was determined as 1000 µg/mL (≈ 370 µM).

The values above are taken from US10213486B2, “Formulations of diluted amino acid segments and methods for making same” (priority 2011, dated 2019).
